Results on 42 compounds are retold here after patent publication US9475815B2, “Substituted benzothienyl-pyrrolotriazines and uses thereof” (Bayer Intellectual Property GmbH, priority 2012, dated 2016).

In one experiment the target is human mTOR (Homo sapiens (Human), UniProt P42345). Description: mTOR kinase assay (TR-FRET, for comparative purposes). Particulars: for inhibition at 1 µM: read-out: mTOR % inhibition @ 1 μM, 1 μM test compound, 40 μM ATP, mean values. In kind it is biochemical. On the procedure:
mTOR inhibitory activity of the compounds of the present invention was quantified employing the TR-FRET based mTOR assay as described in the following paragraphs:
Test compounds were dissolved in DMSO to generate 10 mM stock solutions. These solutions were first 10-fold diluted by 100% DMSO to get 1 mM solutions in 100% DMSO, then 100-fold diluted by 50% DMSO to get 10 μM solutions in 50% DMSO.
(final concentration in the 10 μl assay volume=1 nM) in FRET buffer.
For this, the fluorescence emissions at 495 nm and 520 nm after excitation at 340 nm was measured in an Envision 2104 multilabel reader (Perkin-Elmer).

The target in another experiment is human FGFR-1 (Homo sapiens, UniProt P11362). Description: FGFR-1 high ATP kinase assay (TR-FRET).
human FGFR-1, sequence (P11362 22-822 limits assumed): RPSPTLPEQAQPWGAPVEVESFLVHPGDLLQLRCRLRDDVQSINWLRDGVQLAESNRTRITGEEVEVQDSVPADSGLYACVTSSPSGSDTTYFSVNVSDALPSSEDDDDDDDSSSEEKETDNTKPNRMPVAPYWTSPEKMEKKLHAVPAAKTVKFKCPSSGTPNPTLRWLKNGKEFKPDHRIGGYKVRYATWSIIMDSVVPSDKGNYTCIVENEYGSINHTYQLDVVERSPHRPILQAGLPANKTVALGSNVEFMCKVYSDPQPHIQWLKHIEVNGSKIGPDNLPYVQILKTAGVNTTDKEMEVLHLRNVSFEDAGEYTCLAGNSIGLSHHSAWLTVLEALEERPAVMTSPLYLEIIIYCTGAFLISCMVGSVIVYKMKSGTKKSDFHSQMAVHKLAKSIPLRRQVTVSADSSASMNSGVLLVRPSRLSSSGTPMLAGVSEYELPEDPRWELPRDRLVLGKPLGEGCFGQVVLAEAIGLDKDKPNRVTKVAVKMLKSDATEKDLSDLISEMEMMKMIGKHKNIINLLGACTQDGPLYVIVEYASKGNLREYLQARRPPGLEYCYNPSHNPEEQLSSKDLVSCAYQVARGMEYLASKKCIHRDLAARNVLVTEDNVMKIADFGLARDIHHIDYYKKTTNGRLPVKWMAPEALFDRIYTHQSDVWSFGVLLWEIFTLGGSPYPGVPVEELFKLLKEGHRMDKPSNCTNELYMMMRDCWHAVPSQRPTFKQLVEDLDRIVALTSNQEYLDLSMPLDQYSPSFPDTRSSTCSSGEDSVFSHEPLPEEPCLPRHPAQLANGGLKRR
For a further experiment, the target named is human FGFR-3 (Homo sapiens (Human), UniProt P22607). Description: FGFR-3 kinase assay (TR-FRET). The experiment is classed as biochemical. Particulars: 10 μM ATP, 15 min pre-incubation with enzyme.
human FGFR-3, sequence (P22607 397-806): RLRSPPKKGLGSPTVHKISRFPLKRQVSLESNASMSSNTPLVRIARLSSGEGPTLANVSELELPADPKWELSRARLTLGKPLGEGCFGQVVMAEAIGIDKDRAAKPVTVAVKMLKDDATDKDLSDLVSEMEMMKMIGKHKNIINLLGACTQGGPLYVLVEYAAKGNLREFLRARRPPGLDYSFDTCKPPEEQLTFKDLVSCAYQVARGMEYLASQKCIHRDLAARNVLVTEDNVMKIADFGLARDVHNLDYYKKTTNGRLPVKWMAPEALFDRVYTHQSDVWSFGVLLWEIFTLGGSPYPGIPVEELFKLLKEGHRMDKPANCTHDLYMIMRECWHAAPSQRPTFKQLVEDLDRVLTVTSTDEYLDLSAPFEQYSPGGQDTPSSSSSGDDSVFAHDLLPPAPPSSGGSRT

Each structure is given as a SMILES string.

human mTOR, sequence (P42345 1360-2549): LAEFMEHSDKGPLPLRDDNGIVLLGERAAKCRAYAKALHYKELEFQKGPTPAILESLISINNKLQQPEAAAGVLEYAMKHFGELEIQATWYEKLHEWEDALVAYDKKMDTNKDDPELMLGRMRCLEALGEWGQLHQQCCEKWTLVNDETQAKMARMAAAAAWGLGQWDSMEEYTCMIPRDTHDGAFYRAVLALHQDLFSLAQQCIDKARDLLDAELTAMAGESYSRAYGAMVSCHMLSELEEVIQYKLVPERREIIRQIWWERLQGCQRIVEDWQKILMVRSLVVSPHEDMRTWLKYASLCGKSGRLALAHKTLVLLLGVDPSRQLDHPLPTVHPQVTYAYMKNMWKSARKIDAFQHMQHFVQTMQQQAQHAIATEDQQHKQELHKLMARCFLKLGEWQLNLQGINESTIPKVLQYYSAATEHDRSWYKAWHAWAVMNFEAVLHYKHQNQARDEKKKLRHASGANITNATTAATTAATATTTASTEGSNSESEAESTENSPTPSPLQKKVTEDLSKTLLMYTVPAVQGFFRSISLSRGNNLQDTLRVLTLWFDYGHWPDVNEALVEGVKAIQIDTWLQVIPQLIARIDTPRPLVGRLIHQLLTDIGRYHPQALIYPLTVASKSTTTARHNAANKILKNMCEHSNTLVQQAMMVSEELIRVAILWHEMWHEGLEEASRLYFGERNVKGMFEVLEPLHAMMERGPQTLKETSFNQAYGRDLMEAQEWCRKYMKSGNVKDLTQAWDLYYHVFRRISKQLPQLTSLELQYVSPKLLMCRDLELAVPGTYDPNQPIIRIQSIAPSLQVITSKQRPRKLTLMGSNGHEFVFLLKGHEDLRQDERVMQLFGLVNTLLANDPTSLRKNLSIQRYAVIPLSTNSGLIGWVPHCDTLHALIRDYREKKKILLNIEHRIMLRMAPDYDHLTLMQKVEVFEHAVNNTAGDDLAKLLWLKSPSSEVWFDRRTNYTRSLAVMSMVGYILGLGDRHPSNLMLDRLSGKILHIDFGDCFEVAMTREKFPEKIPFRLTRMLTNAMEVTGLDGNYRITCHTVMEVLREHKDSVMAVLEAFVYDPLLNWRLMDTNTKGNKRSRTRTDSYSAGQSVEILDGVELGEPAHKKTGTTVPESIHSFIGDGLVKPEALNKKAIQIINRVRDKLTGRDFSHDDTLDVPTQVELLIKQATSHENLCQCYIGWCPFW

As to `COc1cc(C)cc2cc(-c3cc(CN[C@@H](CC(N)=O)C(=O)O)n4ncnc(N)c34)sc12` [Example 92], on human mTOR, the inhibition at 1 µM came to 19.9%. In addition, the values for the IC50 against human FGFR-1 and at human FGFR-3 were 0.0462 µM and 0.0117 µM, respectively.
The like results for `COc1cc(C)cc2cc(-c3cc(CNCCC4CCCN4C)n4ncnc(N)c34)sc12` (stereo not drawn) [Example 65] were, in that order, 5.9%, 0.0491 µM and 0.0495 µM.
The like results for `COc1cc(C)cc2cc(-c3cc(CNC4CCS(=O)(=O)C4)n4ncnc(N)c34)sc12` (stereo not drawn) [Example 78] were, in that order, 35.6%, 0.0866 µM and 0.0958 µM.
The like results for `COc1cc(C)cc2cc(-c3cc(COCC(C)N)n4ncnc(N)c34)sc12` (stereo not drawn) [Example 119] were, in that order, 25.1%, 0.0267 µM and 0.0297 µM.
With `COc1cc(C)cc2cc(-c3cc(CO[C@@H]4CCNC4)n4ncnc(N)c34)sc12` [Example 118], the inhibition at 1 µM on human mTOR came out at 18.4%. Besides, the values for the IC50 against human FGFR-1 and against human FGFR-3 were 0.0261 µM and 0.045 µM, respectively.
The like results for `COc1cc(C)cc2cc(-c3cc(CN4CCN(C(N)=O)CC4)n4ncnc(N)c34)sc12` [Example 68] were, in that order, 43.1%, 0.055 µM and 0.0293 µM.
The like results for `COc1cc(C)cc2cc(-c3cc(CN[C@@H](C)C(N)=O)n4ncnc(N)c34)sc12` [Example 85] were, in that order, 28.2%, 0.0454 µM and 0.0221 µM.
Take `COc1cc(C)cc2cc(-c3cc(CN4CCCC4c4ccc(C)cc4)n4ncnc(N)c34)sc12` (stereo not drawn) [Example 79]: the inhibition at 1 µM on human mTOR stood at 16.7%. Besides, the IC50 came out at 0.093 µM against human FGFR-1 and 0.0486 µM on human FGFR-3.
The like results for `COc1cc(C)cc2cc(-c3cc(CN4CCN(CC(N)=O)CC4)n4ncnc(N)c34)sc12` [Example 64] were, in that order, 28.2%, 0.0489 µM and 0.0564 µM.
For the compound `COc1cc(C)cc2cc(-c3cc(C(=O)N4CCC[C@@H](N)C4)n4ncnc(N)c34)sc12` [Example 104], at human mTOR, the inhibition at 1 µM came out at 17.9%. The results for the IC50 at human FGFR-1 and at human FGFR-3 were 0.0281 µM and 0.0146 µM, respectively.
For the compound `COc1cc(C)cc2cc(-c3cc(CN4CC5CC5(N)C4)n4ncnc(N)c34)sc12` (stereo not drawn) [Example 27], on human mTOR, the inhibition at 1 µM is 2.4%. Further, the results for the IC50 against human FGFR-1 and at human FGFR-3 were 0.0422 µM and 0.0608 µM, respectively.
The like results for `COc1cc(C)cc2cc(-c3cc(Cn4ccnc4C#N)n4ncnc(N)c34)sc12` [Example 122] were, in that order, 35.7%, 0.0718 µM and 0.0656 µM.
In the case of `COc1cc(C)cc2cc(-c3cc(CN4CCC[C@@H](N)C4)n4ncnc(N)c34)sc12` [Example 55], the inhibition at 1 µM on human mTOR worked out at 24.6%. Besides, the IC50 on human FGFR-1 stood at 0.0162 µM; against human FGFR-3 it was 0.0187 µM.
The like results for `COc1cc(C)cc2cc(-c3cc(CNC4CCN(C(C)C)CC4)n4ncnc(N)c34)sc12` [Example 80] were, in that order, 3%, 0.0934 µM and 0.12 µM.
In the case of `COc1cc(C)cc2cc(-c3cc(COC[C@H]4CCCN4)n4ncnc(N)c34)sc12` [Example 110], at human mTOR, the inhibition at 1 µM worked out at 4.9%. Further, the IC50 against human FGFR-1 was found to be 0.0516 µM; against human FGFR-3 it was 0.0574 µM.
Consider `COc1cc(C)cc2cc(-c3cc(CN4CCC(CO)CC4)n4ncnc(N)c34)sc12` [Example 73], for which the inhibition at 1 µM at human mTOR worked out at 17.2%. Besides, the IC50 is 0.0666 µM against human FGFR-1 and 0.0648 µM against human FGFR-3.
The like results for `COc1cc(C)cc2cc(-c3cc(CN(C)C4CCS(=O)(=O)C4)n4ncnc(N)c34)sc12` (stereo not drawn) [Example 74] were, in that order, 46.9%, 0.0683 µM and 0.0871 µM.
The like results for `COc1cc(C)cc2cc(-c3cc(CN4CCCN(C)CC4)n4ncnc(N)c34)sc12` [Example 89] were, in that order, 28.7%, 0.0249 µM and 0.0282 µM.
The like results for `COc1cc(C)cc2cc(-c3cc(CN4CCCC(O)C4)n4ncnc(N)c34)sc12` (stereo not drawn) [Example 70] were, in that order, 27.9%, 0.062 µM and 0.0577 µM.
With `COc1cc(C)cc2cc(-c3cc(CN4CCCN(CCO)CC4)n4ncnc(N)c34)sc12` [Example 59], the inhibition at 1 µM at human mTOR was 7%. For the same compound, the IC50 against human FGFR-1 turned out to be 0.0394 µM; against human FGFR-3, 0.0477 µM.
For the compound `COc1cc(C)cc2cc(-c3cc(CN4CC[C@@H](N(C)C)C4)n4ncnc(N)c34)sc12` [Example 90], the inhibition at 1 µM at human mTOR turned out to be 22.7%. The half-maximal inhibitory concentration (IC50) against human FGFR-1 came out at 0.026 µM; against human FGFR-3, 0.0303 µM.
The like results for `COc1cc(C)cc2cc(-c3cc(CN(C)CCC(N)=O)n4ncnc(N)c34)sc12` [Example 67] were, in that order, 48%, 0.0531 µM and 0.0284 µM.
As for `COc1cc(C)cc2cc(-c3cc(CNCC4CCN(C)CC4)n4ncnc(N)c34)sc12` [Example 61], the inhibition at 1 µM on human mTOR came to 8.6%. Also, the IC50 against human FGFR-1 turned out to be 0.0397 µM; on human FGFR-3, 0.0435 µM.
The like results for `COc1cc(C)cc2cc(-c3cc(CN4CCC(OC)CC4)n4ncnc(N)c34)sc12` [Example 82] were, in that order, 18.7%, 0.0973 µM and 0.0719 µM.
The like results for `CCN(Cc1cc(-c2cc3cc(C)cc(OC)c3s2)c2c(N)ncnn12)C(C)CO` (stereo not drawn) [Example 77] were, in that order, 20.2%, 0.0841 µM and 0.0823 µM.
The like results for `COc1cc(C)cc2cc(-c3cc(CN4CC(N5CCCC5)C4)n4ncnc(N)c34)sc12` [Example 71] were, in that order, 21.5%, 0.0634 µM and 0.0793 µM.
On to `COc1cc(C)cc2cc(-c3cc(COCCN4CCOC4=O)n4ncnc(N)c34)sc12` [Example 116], for which the inhibition at 1 µM at human mTOR was 28%. Further, the IC50 against human FGFR-1 came to 0.0903 µM; at human FGFR-3, 0.0715 µM.
On to `COc1cc(C)cc2cc(-c3cc(COC[C@@H]4CCCN4)n4ncnc(N)c34)sc12` [Example 109], for which the “mTOR % inhibition @ 1 μM” value on human mTOR (1 μM test compound, 40 μM ATP, mean values) is recorded as “no inhib. effect detect”. Besides, the IC50 against human FGFR-1 amounted to 0.0656 µM; against human FGFR-3, 0.0371 µM.
For the compound `COc1cc(C)cc2cc(-c3cc(C(=O)N4CCNC(C(N)=O)C4)n4ncnc(N)c34)sc12` (stereo not drawn) [Example 102], at human mTOR, the inhibition at 1 µM is 12.8%. Besides, the results for the IC50 on human FGFR-1 and against human FGFR-3 were 0.0488 µM and 0.0896 µM, respectively.
The like results for `COc1cc(C)cc2cc(-c3cc(CN4CCC(N5CCCC5)C4)n4ncnc(N)c34)sc12` (stereo not drawn) [Example 60] were, in that order, 11.3%, 0.0396 µM and 0.0586 µM.
For the compound `COc1cc(C)cc2cc(-c3cc(CN4CC(O)C4)n4ncnc(N)c34)sc12` [Example 91], on human mTOR, the inhibition at 1 µM amounted to 17.7%. The IC50 against human FGFR-1 turned out to be 0.0369 µM; at human FGFR-3 it was 0.0239 µM.
The like results for `COc1cc(C)cc2cc(-c3cc(C(=O)N4CCNC(C)(C)C4)n4ncnc(N)c34)sc12` [Example 103] were, in that order, 9.2%, 0.0517 µM and 0.114 µM.
Take `COc1cc(C)cc2cc(-c3cc(Cn4cc(C)nc4C)n4ncnc(N)c34)sc12` [Example 123]: at human mTOR, the inhibition at 1 µM worked out at 47.8%. For the same compound, the figures for the IC50 on human FGFR-1 and at human FGFR-3 were 0.0283 µM and 0.058 µM, respectively.
For the compound `COCCN(C)Cc1cc(-c2cc3cc(C)cc(OC)c3s2)c2c(N)ncnn12` [Example 76], at human mTOR, the inhibition at 1 µM was determined as 29.9%. In addition, the 50% inhibitory concentration (IC50) against human FGFR-1 is 0.083 µM; against human FGFR-3 it was 0.0737 µM.
Regarding `CCNC(=O)COCc1cc(-c2cc3cc(C)cc(OC)c3s2)c2c(N)ncnn12` [Example 114], the inhibition at 1 µM on human mTOR was 27.7%. Also, the IC50 on human FGFR-1 was 0.0653 µM; against human FGFR-3, 0.0305 µM.
Consider `CNC(=O)CNCc1cc(-c2cc3cc(C)cc(OC)c3s2)c2c(N)ncnn12` [Example 28], for which, on human mTOR, the inhibition at 1 µM is 6.9%. The IC50 against human FGFR-1 stood at 0.0832 µM; on human FGFR-3 it was 0.0637 µM.
In the case of `COc1cc(C)cc2cc(-c3cc(CN4CC5CNCC5C4)n4ncnc(N)c34)sc12` (stereo not drawn) [Example 23], the inhibition at 1 µM on human mTOR came to 28.1%. Also, the values for the IC50 on human FGFR-1 and against human FGFR-3 were 0.0193 µM and 0.0694 µM, respectively.
As for `COc1cc(C)cc2cc(-c3cc(COC4CCOC4)n4ncnc(N)c34)sc12` (stereo not drawn) [Example 113], the inhibition at 1 µM on human mTOR turned out to be 29.7%. Also, the IC50 against human FGFR-1 is 0.0831 µM; against human FGFR-3, 0.0647 µM.
The like results for `CCC(N)COCc1cc(-c2cc3cc(C)cc(OC)c3s2)c2c(N)ncnn12` (stereo not drawn) [Example 112] were, in that order, 8.8%, 0.0672 µM and 0.102 µM.
As to `CCCc1nccn1Cc1cc(-c2cc3cc(C)cc(OC)c3s2)c2c(N)ncnn12` [Example 121], on human mTOR, the inhibition at 1 µM was found to be 26.8%. The IC50 was determined as 0.0333 µM at human FGFR-1 and 0.0659 µM against human FGFR-3.
Take `COc1cc(C)cc2cc(-c3cc(CN4CC[C@@H](O)C4)n4ncnc(N)c34)sc12` [Example 84]: the inhibition at 1 µM at human mTOR came to 15.3%. Moreover, the IC50 at human FGFR-1 worked out at 0.0389 µM; on human FGFR-3, 0.0391 µM.
The like results for `COc1cc(C)cc2cc(-c3cc(C(=O)N4CCC(N(C)C)C4)n4ncnc(N)c34)sc12` (stereo not drawn) [Example 100] were, in that order, 15.9%, 0.0207 µM and 0.0359 µM.
